In ChEMBL document CHEMBL1201862, “PubChem BioAssay data set” (2004):
Calls of active or inactive are those of the source.

Experiments:
[1] = molecular target: T1, Aryl hydrocarbon receptor (Homo sapiens, UniProt P35869); assay: Luminescence-based cell-based high throughput dose response assay for activators of the Aryl Hydrocarbon Receptor (AHR). [Related pubchem assays: 2796 (Primary screen (AHR activators in singlicate)), 2845 (Confirmation screen (AHR activators in triplicate)), 434939 (Counterscreen (PXR activators in triplicate)), 2804 (Summary (AHR activators))]; format: ADME
T1 sequence (P35869 whole entry): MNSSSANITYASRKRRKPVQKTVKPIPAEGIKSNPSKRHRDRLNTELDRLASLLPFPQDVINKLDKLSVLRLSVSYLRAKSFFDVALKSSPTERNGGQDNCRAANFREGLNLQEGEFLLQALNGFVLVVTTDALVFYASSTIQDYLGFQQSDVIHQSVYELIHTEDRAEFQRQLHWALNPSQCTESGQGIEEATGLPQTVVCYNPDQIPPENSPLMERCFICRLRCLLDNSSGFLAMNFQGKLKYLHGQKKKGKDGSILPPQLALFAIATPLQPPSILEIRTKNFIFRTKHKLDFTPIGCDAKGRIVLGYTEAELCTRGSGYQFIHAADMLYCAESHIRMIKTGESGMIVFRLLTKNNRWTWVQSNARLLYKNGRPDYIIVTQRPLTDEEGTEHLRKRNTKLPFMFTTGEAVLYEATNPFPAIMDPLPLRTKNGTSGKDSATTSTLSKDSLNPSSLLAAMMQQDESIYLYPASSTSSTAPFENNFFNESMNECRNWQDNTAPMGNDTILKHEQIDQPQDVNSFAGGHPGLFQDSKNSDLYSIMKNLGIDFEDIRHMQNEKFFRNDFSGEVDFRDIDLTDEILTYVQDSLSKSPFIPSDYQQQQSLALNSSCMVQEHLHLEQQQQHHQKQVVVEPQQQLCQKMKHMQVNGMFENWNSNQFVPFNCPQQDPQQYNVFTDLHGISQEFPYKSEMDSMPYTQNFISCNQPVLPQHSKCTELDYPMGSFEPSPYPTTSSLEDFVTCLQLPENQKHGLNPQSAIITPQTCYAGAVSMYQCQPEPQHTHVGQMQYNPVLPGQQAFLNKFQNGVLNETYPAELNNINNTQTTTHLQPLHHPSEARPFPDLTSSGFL

[2] = cytotoxicity in KRAS-transformed pancreatic duct cells, primary screen, cell-based, fluorescence, HTS (AID 431); format: functional; conditions: Homo sapiens;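 further: cell line used: HPDE-C7K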
[3] = cytotoxicity in HPDE-C7 cells, cell-based, fluorescence, HTS (AID 430); format: functional; conditions: Homo sapiens
[4] = molecular target: Sphingosine 1-phosphate receptor 2 (Homo sapiens, UniProt O95136); assay: Dose Response Cell Based Assay for Antagonists of the S1P2 Receptor. [Related pubchem assays: 856, 736 ]; format: functional
[5] = system: Streptococcus sp. 'group A'; assay: growth inhibition of control SK(-) GAS strain, dose response, counter-screen for streptokinase expression inhibitor project, luminescence, kanamycin, BacTiterGlo, confirmation (AID 1900); format: functional, organism-based
Streptococcus = assay: Group A Streptococcus viability loss, dose response, counter-screen for streptokinase expression inhibitor project, luminescence, BacTiterGlo (AID 1915); format: functional, organism-based;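 further: potency for reduction of bacterial viability or growth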
[6] = cytotoxicity toward NIH3T3 fibroblasts, dose response, counter-screen, cell-based, ATP luminescence, mouse fibroblasts (AID 2010); format: functional;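 further: cells exposed to compound for about 90 hours before reading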
Streptokinase A = molecular target: T2, Streptokinase A (Streptococcus pyogenes serotype M1, UniProt P10520); assay: S. pyogenes streptokinase expression inhibitors, potency, dose response, plasminogen activation absorbance, OD405 (AID 1914); format: functional, Streptococcus pyogenes M1 GAS;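 further: secreted streptokinase activity via plasminogen activation per viability signal from cell pellet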
T2 sequence (P10520 whole entry): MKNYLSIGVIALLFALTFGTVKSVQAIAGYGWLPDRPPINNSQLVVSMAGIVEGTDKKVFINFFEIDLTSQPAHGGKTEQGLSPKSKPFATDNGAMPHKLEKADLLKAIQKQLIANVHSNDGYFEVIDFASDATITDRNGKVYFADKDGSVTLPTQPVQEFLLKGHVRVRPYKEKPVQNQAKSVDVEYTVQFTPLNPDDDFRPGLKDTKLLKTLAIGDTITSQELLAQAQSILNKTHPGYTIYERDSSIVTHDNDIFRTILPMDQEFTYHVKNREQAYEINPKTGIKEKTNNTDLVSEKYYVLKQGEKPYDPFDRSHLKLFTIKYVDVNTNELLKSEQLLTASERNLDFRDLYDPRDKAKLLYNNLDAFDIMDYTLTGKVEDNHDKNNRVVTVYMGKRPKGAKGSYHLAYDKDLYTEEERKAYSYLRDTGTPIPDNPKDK

[7] = inhibitors of intracellular T. cruzi replication, confirmation, NIH3T3 host cells, beta-gal luminescence (AID 2044); format: functional, cell-based;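 further: intracellular parasites grown in NIH/3T3 mouse fibroblasts as host cells; luminescent beta-galactosidase reporter signal from transgenic T. cruzi replicating inside host cells; inhibitors lower the luminescence signal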
Ephrin type-A receptor 4 = Ephrin type-A receptor 4 (Mus musculus, UniProt Q03137); assay: inhibitors of EphA4 binding to KYL peptide, primary screen, biochemical, colorimetric, mouse EphA4 (AID 689); format: functional
[8] = Luminescence Cell-Based Dose Confirmation HTS to Identify Inhibitors of Platelet Dense Granule Release. [Related pubchem assays: 1663 (Primary HTS), 1678 (Summary of Project)]; format: functional
[9] = molecular target: Oxysterols receptor LXR-beta (Homo sapiens, UniProt P55055); assay: LXR agonists, Gal4 luciferase reporter, dose response, counter-screen for ssDAF-12 agonist project, cell-based, luminescence, HEK293, S. stercoralis campaign (AID 720737); format: functional; conditions: read-out: IC50 (the source's name)
[10] = Luminescence-based cell-based high throughput dose response assay to identify activators of the DAF-12 from the parasite S. stercoralis (ssDAF-12).; format: functional
[11] = molecular target: Luciferin 4-monooxygenase (Photinus pyralis, UniProt P08659); assay: firefly luciferase enzyme inhibitors, dose response, biochemical, luminescence (AID 1891)
[12] = inhibitors of PGC1a acetylation in cells, dose response, cell-based, cherry-picked samples (AID 720514); format: functional;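 further: potency may reflect raised or lowered acetylation signal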
[13] = cytotoxicity in OV-90 ovarian cancer cells, dose response, PAX8 inhibitor project, cell-based, plate reader, dry powder, SA8 (AID 743149); format: functional
[14] = NIH:OVCAR-3 ovarian cancer cell cytotoxicity, dose response, PAX8 inhibitor project, plate reader, dry powder samples (AID 743044); format: functional, cell-based
[15] = PAX2 cell-based inhibition, dose response, selectivity assay for PAX8 inhibitor project, plate reader, dry powder samples (AID 743048); format: functional;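 further: HEK293 cells carrying a WT1 promoter luciferase reporter driven by expressed Pax2; potency is for inhibition of Pax2 driven reporter signal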
[16] = PAX5 activity inhibitors, dose response, selectivity assay for PAX8 inhibitor project, cell-based, plate reader, dry powder samples (AID 743047); format: functional;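 further: HEK293 cells carrying a Pax5 driven CD19 promoter luciferase reporter; potency of inhibitors that lower reporter luminescence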
[17] = cytotoxicity dependent on PAX8, dose response, cell-based, plate reader, dry powder (AID 743049); format: functional
[18] = P. falciparum Dd2 growth inhibitors, dose response, SYBR Green, cherry-picked samples (AID 1159567); format: functional, cell-based
[19] = HepG2 cell cytotoxicity, dose response, cytotoxicity control, cherry-picked samples (AID 1159577); format: functional, cell-based
[20] = HepG2 cell cytotoxicity, dose response, cytotoxicity control, plate reader, dry powder samples (AID 1159569); format: functional, cell-based;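 further: inhibitor potency with signal falling toward the positive control level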
[21] = P. falciparum ATP4 D1247Y mutant growth inhibitors, dose response, NITD609-resistant line, SYBR Green, dry powder (AID 1159571); format: functional, cell-based;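 further: parasites synchronized at ring stage by sorbitol before testing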
[22] = P. falciparum Dd2 growth inhibitors, dose response, SYBR Green, dry powder samples (AID 1159566); format: functional, cell-based;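 further: potency for growth inhibition with lower SYBR green DNA signal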
[23] = P. falciparum 3D7-ScDHODH growth inhibitors, dose response, SYBR Green, dry powder samples (AID 1159570); format: functional, cell-based;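 further: parasite growth measured after 72 hours of compound exposure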
[24] = HeLa 4N DNA content increase, dose response, cell-based, IC50 (AID 1117351); format: functional
[25] = HeLa 2N DNA content increase, dose response, cell-based, IC50 (AID 1117349); format: functional

Sequence of Ephrin type-A receptor 4 (Q03137 whole entry): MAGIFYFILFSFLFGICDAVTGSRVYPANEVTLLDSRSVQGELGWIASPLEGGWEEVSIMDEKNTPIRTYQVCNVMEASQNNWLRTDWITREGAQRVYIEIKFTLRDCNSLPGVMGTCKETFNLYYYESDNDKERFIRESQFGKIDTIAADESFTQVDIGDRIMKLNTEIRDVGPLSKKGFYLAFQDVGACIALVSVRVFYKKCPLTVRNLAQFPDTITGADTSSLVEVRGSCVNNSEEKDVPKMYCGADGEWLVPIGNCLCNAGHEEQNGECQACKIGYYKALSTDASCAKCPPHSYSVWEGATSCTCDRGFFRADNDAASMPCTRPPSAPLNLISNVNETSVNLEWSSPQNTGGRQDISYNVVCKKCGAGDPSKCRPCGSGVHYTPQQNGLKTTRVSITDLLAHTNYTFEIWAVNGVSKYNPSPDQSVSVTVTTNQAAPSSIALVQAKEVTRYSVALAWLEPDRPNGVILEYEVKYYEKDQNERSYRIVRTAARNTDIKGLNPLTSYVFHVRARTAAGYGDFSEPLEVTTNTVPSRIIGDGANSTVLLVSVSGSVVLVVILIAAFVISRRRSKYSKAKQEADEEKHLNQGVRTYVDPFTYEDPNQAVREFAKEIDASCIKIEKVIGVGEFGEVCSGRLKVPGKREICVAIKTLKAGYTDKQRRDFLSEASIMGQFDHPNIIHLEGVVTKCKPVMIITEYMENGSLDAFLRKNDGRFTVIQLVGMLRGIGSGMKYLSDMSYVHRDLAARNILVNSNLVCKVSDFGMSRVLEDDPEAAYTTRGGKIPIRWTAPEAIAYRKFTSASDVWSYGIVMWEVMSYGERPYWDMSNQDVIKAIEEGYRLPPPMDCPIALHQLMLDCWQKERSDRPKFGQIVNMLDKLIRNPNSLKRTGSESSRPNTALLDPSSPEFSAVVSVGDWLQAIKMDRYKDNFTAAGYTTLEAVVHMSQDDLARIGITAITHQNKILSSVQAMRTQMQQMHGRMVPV
Sequence of Luciferin 4-monooxygenase (P08659 whole entry): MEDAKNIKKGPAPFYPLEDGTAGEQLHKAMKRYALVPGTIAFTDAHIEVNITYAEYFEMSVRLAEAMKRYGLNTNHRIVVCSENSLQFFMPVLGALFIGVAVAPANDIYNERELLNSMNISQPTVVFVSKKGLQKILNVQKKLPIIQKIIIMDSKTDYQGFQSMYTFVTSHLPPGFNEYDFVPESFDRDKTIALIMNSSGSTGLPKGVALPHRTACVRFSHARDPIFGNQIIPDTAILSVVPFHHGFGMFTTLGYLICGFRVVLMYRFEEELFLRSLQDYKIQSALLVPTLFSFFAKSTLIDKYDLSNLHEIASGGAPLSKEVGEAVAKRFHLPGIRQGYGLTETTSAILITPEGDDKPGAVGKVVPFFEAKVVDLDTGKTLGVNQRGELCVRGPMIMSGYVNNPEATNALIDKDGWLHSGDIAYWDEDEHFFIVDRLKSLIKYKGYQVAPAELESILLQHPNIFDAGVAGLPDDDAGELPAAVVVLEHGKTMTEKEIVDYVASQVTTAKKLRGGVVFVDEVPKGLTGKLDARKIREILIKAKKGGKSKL
Sequence of Sphingosine 1-phosphate receptor 2 (O95136 whole entry): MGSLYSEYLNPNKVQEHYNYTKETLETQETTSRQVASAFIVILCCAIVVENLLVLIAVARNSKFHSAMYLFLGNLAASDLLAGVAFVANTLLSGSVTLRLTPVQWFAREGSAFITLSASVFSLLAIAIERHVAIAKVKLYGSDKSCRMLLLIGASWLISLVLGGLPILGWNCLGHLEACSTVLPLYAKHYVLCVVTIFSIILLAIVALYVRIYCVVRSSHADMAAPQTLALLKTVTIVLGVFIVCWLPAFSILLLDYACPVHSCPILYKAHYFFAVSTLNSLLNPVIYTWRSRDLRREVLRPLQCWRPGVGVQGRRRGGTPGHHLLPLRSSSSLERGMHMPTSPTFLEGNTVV
Sequence of Oxysterols receptor LXR-beta (P55055 whole entry, the tested form may be a part): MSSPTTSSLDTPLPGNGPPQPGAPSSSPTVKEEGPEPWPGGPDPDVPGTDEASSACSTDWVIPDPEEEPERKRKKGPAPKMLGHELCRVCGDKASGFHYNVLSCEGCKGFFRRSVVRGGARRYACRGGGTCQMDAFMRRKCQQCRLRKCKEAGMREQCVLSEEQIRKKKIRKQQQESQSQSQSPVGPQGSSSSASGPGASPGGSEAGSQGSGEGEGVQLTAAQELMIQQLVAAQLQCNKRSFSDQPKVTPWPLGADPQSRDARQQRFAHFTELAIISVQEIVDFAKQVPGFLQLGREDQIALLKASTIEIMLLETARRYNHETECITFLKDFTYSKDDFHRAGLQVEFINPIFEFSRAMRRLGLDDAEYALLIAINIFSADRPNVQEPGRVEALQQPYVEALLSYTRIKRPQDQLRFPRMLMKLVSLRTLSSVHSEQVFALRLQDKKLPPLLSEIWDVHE

For `Cc1csc(NC(=O)CSc2ccc3nnc(-c4ccncc4)n3n2)n1`, the EC50 [1] was 12 µM (not active).

With `N#C/C(=C/c1ccc(N2CCCCCC2)o1)c1ccc(F)cc1` the EC50 [2] was 14.1 µM (active), the EC50 [3] was 13.6 µM (active) and the IC50 [4] was 11.5 µM (not active). For the same compound, the EC50 [5] was 19.2 µM (active), the EC50 (Streptococcus) was > 150 µM (not active) and the EC50 [6] was 9.44 µM (active). For the same compound, the EC50 (Streptokinase A) was 16 µM (active) and the EC50 [7] was 3.49 µM (active).

For `COc1ccc(/C=c2\sc3nc(-c4ccccc4)c(-c4ccccc4)n3c2=O)cc1OC`, the IC50 (Ephrin type-A receptor 4) was 8.12 µM (active).

In the case of `N/C(=N\N=C\c1cccc(O)c1)c1nonc1N`, the EC50 [8] is reported as 1.75 µM (active), the EC50 [9] is reported as > 67.5 µM (inactive) and the IC50 [10] is reported as > 67.5 µM (inactive). For the same compound, the EC50 [11] was 3.47 µM (active).

For `C[C@H](CO)N1C[C@H](C)[C@@H](CN(C)C(=O)C2CCCCC2)Oc2cc(C#Cc3ccncc3)ccc2S1(=O)=O`, the AC50 [12] was 9.86 µM (active).

In the case of `COC(=O)[C@@]1(CCS(=O)(=O)c2ccccc2)N=C(c2ccc(OCCCO)cc2)O[C@H]1c1ccccc1`, the AC50 [13] is reported as 14.1 µM (active), the AC50 [14] is reported as 95 µM (active) and the AC50 [15] is reported as 58.6 µM (active). For the same compound, the AC50 [16] was 77.3 µM (active) and the AC50 [17] was > 100 µM (inactive).

For `Cc1ccc(-c2ccc3c(c2)O[C@H](CN(C)Cc2ccncc2)[C@@H](C)CN([C@H](C)CO)S3(=O)=O)cc1`, the AC50 [18] was 5.12 µM (active) and the AC50 [19] was 22.1 µM (active).

For `COc1cc(CN2C[C@@H]3N[C@H](C2)[C@@H]3c2ccc(-c3ccncc3)cc2)cc(OC)c1`, the AC50 [20] was 18.7 µM (active), the AC50 [21] was 1.9 µM (active) and the AC50 [22] was 1.92 µM (active). The AC50 [18] was 2.11 µM (active), the AC50 [19] was > 39 µM (inactive) and the AC50 [23] was 2.53 µM (active).

For `COCC#Cc1ccc([C@@H]2[C@H](CO)N3CCCCN(S(=O)(=O)c4ccc(OC)cc4)C[C@@H]23)cc1`, the AC50 [20] was 98.4 µM (active), the AC50 [21] was 1.48 µM (active) and the AC50 [22] was 1.33 µM (active). The AC50 [18] was 2.47 µM (active) and the AC50 [23] was 1.81 µM (active).

With `COCCOC(=O)C1=C(C)NC(C)=C(C(=O)OC/C=C/c2ccccc2)C1c1cccc([N+](=O)[O-])c1` (configuration not stated) [CILNIDIPINE] the IC50 [24] was > 10 µM (inactive) and the IC50 [25] was > 10 µM (inactive).

For `COC(=O)[C@H]1[C@H]2C[C@@H]3c4[nH]c5cc(OC)ccc5c4CCN3C[C@H]2C[C@@H](OC(=O)/C=C/c2ccc(O)c(OC)c2)[C@@H]1OC` [RESCIMETOL], the IC50 [24] was > 10 µM (inactive) and the IC50 [25] was > 10 µM (inactive).
